# Data: patent publication US12319664B2, “Herbicidally active 3-phenylisoxazoline-5-carboxamides of cyclopentenylcarboxylic acid derivatives” (Bayer Aktiengesellschaft, priority 2018, dated 2025)
# Experiments:
# POLCO = assay: Post-emergence herbicidal action against POLCO; type: in vivo, Polygonum convolvulus; conditions: application rate 80 g/ha, rated visually about 3 weeks after treatment
# Summary of the method: (§1)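 Weeds grown from seed in sandy loam in the greenhouse, sprayed post-emergence at the one-leaf stage 2 to 3 weeks after sowing. Compounds formulated as WP or EC, applied as aqueous suspension/emulsion with 0.5% additive at 600 l/ha. Activity rated visually after about 3 weeks against untreated controls (100% = plants died, 0% = like control).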
# HORMU = assay: Post-emergence herbicidal action against HORMU; type: in vivo, Hordeum murinum; conditions: application rate 80 g/ha
# Summary of the method: as §1
# VIOTR = assay: Post-emergence herbicidal action against VIOTR; type: in vivo, Viola tricolor; conditions: application rate 80 g/ha, rated visually about 3 weeks after treatment
# Experimental: [table] 2. Post-emergence herbicidal action against harmful plants and crop plant compatibility Seeds of monocotyledonous and dicotyledonous weeds and crop plants are placed in sandy loam in plastic or wood-fibre pots, covered with soil and cultivated in a greenhouse under controlled growth conditions. 2 to 3 weeks after sowing, the test plants are treated at the one-leaf stage. The compounds of the invention, formulated in the form of wettable powders (WP) or as emulsion concentrates (EC), are then sprayed onto the green parts of the plants as aqueous suspension or emulsion with addition of 0.5% additive at a water application rate of 600 l/ha (converted). After the test plants have been kept in the greenhouse under optimum growth conditions for about 3 weeks, the activity of the preparations is rated visually in comparison to untreated controls. For example, 100% activity=the plants have died, 0% activity=like control plants.
# ALOMY = assay: Post-emergence herbicidal action against ALOMY; type: in vivo, Alopecurus myosuroides; conditions: application rate 80 g/ha, rated visually after about 3 weeks
# Summary of the method: as §1
# SETVI = assay: Post-emergence herbicidal action against SETVI; type: in vivo, Setaria viridis; conditions: application rate 80 g/ha, rated visually after about 3 weeks
# Summary of the method: as §1
# LOLRI = assay: Post-emergence herbicidal action against LOLRI; type: in vivo, Lolium rigidum; conditions: application rate 80 g/ha, rated visually after about 3 weeks
# Summary of the method: as §1
# AVEFA = assay: Post-emergence herbicidal action against AVEFA; type: in vivo, Avena fatua; conditions: application rate 80 g/ha, rated visually after about 3 weeks
# Summary of the method: as §1
# VERPE = assay: Post-emergence herbicidal action against VERPE; type: in vivo, Veronica persica; conditions: application rate 80 g/ha
# Summary of the method: as §1
# AMARE = assay: Post-emergence herbicidal action against AMARE; type: in vivo, Amaranthus retroflexus; conditions: application rate 80 g/ha, rated visually about 3 weeks after treatment
# Summary of the method: as §1
# PHBPU = assay: Post-emergence herbicidal action against PHBPU; type: in vivo, Pharbitis purpurea; conditions: application rate 80 g/ha, rated visually about 3 weeks after treatment
# Summary of the method: as §1
# ECHCG = assay: Post-emergence herbicidal action against ECHCG; type: in vivo, Echinochloa crus-galli; conditions: application rate 80 g/ha, rated visually after about 3 weeks
# Summary of the method: as §1
# STEME = assay: Post-emergence herbicidal action against STEME; type: in vivo, Stellaria media; conditions: application rate 80 g/ha, rated visually about 3 weeks after treatment
# Summary of the method: as §1
# ABUTH = assay: Post-emergence herbicidal action against ABUTH; type: in vivo, Abutilon theophrasti; conditions: application rate 80 g/ha, rated visually about 3 weeks after treatment
# Summary of the method: as §1
SMILES,Herbicidal action against [%] POLCO (POLCO) [%],Herbicidal action against [%] HORMU (HORMU) [%],Herbicidal action against [%] VIOTR (VIOTR) [%],Herbicidal action against [%] ALOMY (ALOMY) [%],Herbicidal action against [%] SETVI (SETVI) [%],Herbicidal action against [%] LOLRI (LOLRI) [%],Herbicidal action against [%] AVEFA (AVEFA) [%],Herbicidal action against [%] VERPE (VERPE) [%],Herbicidal action against [%] AMARE (AMARE) [%],Herbicidal action against [%] PHBPU (PHBPU) [%],Herbicidal action against [%] ECHCG (ECHCG) [%],Herbicidal action against [%] STEME (STEME) [%],Herbicidal action against [%] ABUTH (ABUTH) [%]
CC(C)(C#N)NC(=O)C1C=CC(NC(=O)C2(C(F)(F)F)CC(c3cc(F)cc(F)c3)=NO2)C1 (mixture of isomers) [II-34],90,80,90,90,80,90,100,90,90,90,80,90,80
CC(C)C(C#N)NC(=O)C1C=CC(NC(=O)C2(C(F)(F)F)CC(c3cc(F)cc(F)c3)=NO2)C1 (mixture of isomers) [II-35],90,80,90,90,80,90,100,90,90,90,,90,80
COCCOC(=O)C1C=CC(NC(=O)C2(C(F)(F)F)CC(c3cc(F)cc(C#N)c3)=NO2)C1 (centres unmarked) [Example I-100],90,90,80,100,80,90,100,90,80,80,90,90,80
COC(=O)C1C=CC(NC(=O)C2(C)CC(c3cccc(C#N)c3)=NO2)C1 (mixture of isomers) [Example I-080],90,90,80,90,80,90,100,90,90,90,90,90,
"COC(=O)[C@@H]1C=C[C@H](NC(=O)C2(C(F)(F)F)CC(c3cc(F)cc(C#N)c3)=NO2)C1 (single isomer, unassigned) [Example I-097]",80,90,80,100,90,100,90,80,80,80,90,80,
COc1cc(OC)cc(C2=NOC(C(=O)NC3C=CC(C(=O)OCC(F)(F)F)C3)(C(F)(F)F)C2)c1 (mixture of isomers) [Example I-052],,100,80,100,90,100,100,80,90,80,80,80,90
CC1(C(=O)NC2C=CC(C(=O)O)C2)CC(c2cc(F)cc(C#N)c2)=NO1 (mixture of isomers) [Example I-075],90,100,90,100,80,100,,90,90,90,90,90,80
C=CC1(C(=O)N[C@H]2CC=C(C(=O)OCCOCC)C2)CC(c2cc(F)cc(F)c2)=NO1 (some centres unmarked) [III-16],90,90,90,,80,100,100,80,90,90,90,80,80
N#Cc1cccc(C2=NOC(C(=O)NC3C=CC(C(=O)OCCCl)C3)(C(F)(F)F)C2)c1 (mixture of isomers) [Example I-088],90,90,90,,90,100,100,90,90,90,90,90,90
CC1(C(=O)N[C@H]2CC=C(C(=O)OCc3ccccc3)C2)CC(c2cc(F)cc(F)c2)=NO1 (some centres unmarked) [III-12],90,100,90,100,80,100,100,90,90,90,,80,90
COC(=O)C1=CC[C@H](NC(=O)C2(C)CC(c3cc(F)cc(F)c3)=NO2)C1 (some centres unmarked) [III-10],,100,90,100,90,100,100,90,90,90,90,90,90
